“And” between values parts separate entries of the source, which are not always exact repeats. Equal values may be shown once. Inconclusive results and toxic doses are left out. Rule as the data show it: active = T/C of 150% or more; inactive = T/C below 125%.
System: L1210 leukemia ip in BDF1 mice, survival T/C
Experiment: NCI In Vivo Anticancer Drug Screen. Data for tumor model L1210 Leukemia (intraperitoneal) in B6D2F1 (BDF1) mice
Details: endpoint: mean survival time, higher = longer survival
Procedure, shortened: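 Each compound was tested against a transplantable tumor grown in mice. The endpoint was survival, with treated animals benchmarked against vehicle controls as a simple ratio.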

[1] = dose: 100.0 mg/kg/injection, schedule: Q01DX009 (ip), vehicle: saline
[2] = dose: 100.0 mg/kg/injection, schedule: Q04DX003 (ip), vehicle: saline
[3] = dose: 200.0 mg/kg/injection, schedule: Q01DX009 (ip), vehicle: saline
[4] = dose: 200.0 mg/kg/injection, schedule: Q04DX003 (ip), vehicle: saline
[5] = dose: 400.0 mg/kg/injection, schedule: Q01DX009 (ip), vehicle: saline
[6] = dose: 400.0 mg/kg/injection, schedule: Q04DX003 (ip), vehicle: saline
[7] = dose: 100.0 mg/kg/injection, schedule: Q01DX001 (ip), vehicle: saline
[8] = dose: 200.0 mg/kg/injection, schedule: Q01DX001 (ip), vehicle: saline
[9] = dose: 400.0 mg/kg/injection, schedule: Q01DX001 (ip), vehicle: saline
[10] = dose: 100.0 mg/kg/injection, schedule: Q01DX009 (ip), vehicle: Klucel (hydroxypropylcellulose) (HPC)
[11] = dose: 100.0 mg/kg/injection, schedule: Q04DX003 (ip), vehicle: Klucel (hydroxypropylcellulose) (HPC)
[12] = dose: 200.0 mg/kg/injection, schedule: Q01DX009 (ip), vehicle: Klucel (hydroxypropylcellulose) (HPC)
[13] = dose: 200.0 mg/kg/injection, schedule: Q04DX003 (ip), vehicle: Klucel (hydroxypropylcellulose) (HPC)
[14] = dose: 400.0 mg/kg/injection, schedule: Q01DX009 (ip), vehicle: Klucel (hydroxypropylcellulose) (HPC)
[15] = dose: 50.0 mg/kg/injection, schedule: Q04DX003 (ip), vehicle: saline
[16] = dose: 100.0 mg/kg/injection, schedule: Q01DX001 (ip), vehicle: Klucel (hydroxypropylcellulose) (HPC)
[17] = dose: 200.0 mg/kg/injection, schedule: Q01DX001 (ip), vehicle: Klucel (hydroxypropylcellulose) (HPC)
[18] = dose: 400.0 mg/kg/injection, schedule: Q01DX001 (ip), vehicle: Klucel (hydroxypropylcellulose) (HPC)

Measured: T/C

CCOC(=O)c1ccc(N(CCC(=O)COC(C)=O)C(C)=O)cc1
inactive: dose: 100.0 mg/kg/injection, schedule: Q01DX001 (ip), vehicle: carboxymethylcellulose (CMC) 94 % of control | dose: 200.0 mg/kg/injection, schedule: Q01DX001 (ip), vehicle: carboxymethylcellulose (CMC) 100 % of control | dose: 400.0 mg/kg/injection, schedule: Q01DX001 (ip), vehicle: carboxymethylcellulose (CMC) 102 % of control

CC1OC2COC(C)OC2C(C(O)COC(=O)c2ccc([N+](=O)[O-])cc2)O1 (stereo not given)
inactive: [1] 98 % of control | [2] 110 % of control | [3] 98 % of control | [4] 104 % of control | [5] 103 % of control | [6] 101 % of control

O=C(O)CNC(=S)Nc1ccc(S(=O)(=O)c2ccc(NC(=S)NCC(=O)O)cc2)cc1
inactive: [7] 102 % of control | [8] 102 % of control | [9] 102 % of control

O=C(NCCCl)NC1c2ccccc2-c2ccccc21
inactive: [10] 105 % of control | [11] 96 % of control and 89 % of control | [12] 92 % of control | [13] 102 % of control | [14] 106 % of control | dose: 400.0 mg/kg/injection, schedule: Q04DX003 (ip), vehicle: Klucel (hydroxypropylcellulose) (HPC) 98 % of control and 86 % of control

O=C(O)Cc1ccc([N+](=O)[O-])cc1
inactive: dose: 100.0 mg/kg/injection, schedule: Q01DX009 (ip), vehicle: saline with Tween-80 90 % of control | dose: 200.0 mg/kg/injection, schedule: Q01DX009 (ip), vehicle: saline with Tween-80 93 % of control | dose: 400.0 mg/kg/injection, schedule: Q01DX009 (ip), vehicle: saline with Tween-80 94 % of control

CCc1ccccc1N1CCN(C(=O)c2cc(OC)c(OC)c(OC)c2)CC1
inactive: dose: 25.0 mg/kg/injection, schedule: Q01DX009 (ip), vehicle: saline 100 % of control | dose: 50.0 mg/kg/injection, schedule: Q01DX009 (ip), vehicle: saline 102 % of control and 105 % of control | dose: 50.0 mg/kg/injection, schedule: Q01DX Z (ip), vehicle: carboxymethylcellulose (CMC) 104 % of control | dose: 50.0 mg/kg/injection, schedule: Q04DX003 (ip), vehicle: acetone 98 % of control | [15] 94 % of control | dose: 74.0 mg/kg/injection, schedule: Q01DX009 (ip), vehicle: saline 100 % of control | dose: 74.0 mg/kg/injection, schedule: Q01DX Z (ip), vehicle: carboxymethylcellulose (CMC) 107 % of control | dose: 74.0 mg/kg/injection, schedule: Q04DX003 (ip), vehicle: saline 92 % of control | [7] 100 % of control | [1] 114 % of control | dose: 100.0 mg/kg/injection, schedule: Q04DX003 (ip), vehicle: acetone 97 % of control | dose: 112.0 mg/kg/injection, schedule: Q01DX009 (ip), vehicle: saline 97 % of control | dose: 112.0 mg/kg/injection, schedule: Q01DX Z (ip), vehicle: carboxymethylcellulose (CMC) 102 % of control | dose: 112.0 mg/kg/injection, schedule: Q04DX003 (ip), vehicle: saline 99 % of control | dose: 168.0 mg/kg/injection, schedule: Q01DX009 (ip), vehicle: saline 108 % of control | dose: 168.0 mg/kg/injection, schedule: Q04DX003 (ip), vehicle: saline 97 % of control and 99 % of control | [8] 103 % of control | [3] 100 % of control | [4] 103 % of control | dose: 225.0 mg/kg/injection, schedule: Q01DX009 (ip), vehicle: saline 97 % of control | dose: 250.0 mg/kg/injection, schedule: Q04DX003 (ip), vehicle: saline 103 % of control

CCN1C(=S)N(C)C(=O)/C1=C\N(C(C)=O)c1ccccc1
inactive: dose: 50.0 mg/kg/injection, schedule: Q04DX003 (ip), vehicle: Klucel (hydroxypropylcellulose) (HPC) 103 % of control | [16] 104 % of control | [11] 112 % of control | [17] 104 % of control | [13] 100 % of control | [18] 102 % of control

OCCCOc1ccc(Cl)cc1Cl
inactive: dose: 100.0 mg/kg/injection, schedule: Q04DX002 (sc), vehicle: olive oil, sesame oil, peanut oil 100 % of control | dose: 200.0 mg/kg/injection, schedule: Q04DX002 (sc), vehicle: olive oil, sesame oil, peanut oil 95 % of control | dose: 400.0 mg/kg/injection, schedule: Q04DX002 (sc), vehicle: olive oil, sesame oil, peanut oil 110 % of control

Nc1nc(N)nc(-c2ccccc2N=NNc2ccc([N+](=O)[O-])cc2)n1
inactive: dose: 100.0 mg/kg/injection, schedule: Q04DX002 (ip), vehicle: Klucel (hydroxypropylcellulose) (HPC) 97 % of control | dose: 200.0 mg/kg/injection, schedule: Q04DX002 (ip), vehicle: Klucel (hydroxypropylcellulose) (HPC) 93 % of control | dose: 400.0 mg/kg/injection, schedule: Q04DX002 (ip), vehicle: Klucel (hydroxypropylcellulose) (HPC) 89 % of control

Oc1ccc(-c2ccc(O)c(O)c2)cc1O
inactive: dose: 75.0 mg/kg/injection, schedule: Q01DX001 (ip), vehicle: carboxymethylcellulose (CMC) 100 % of control | dose: 150.0 mg/kg/injection, schedule: Q01DX001 (ip), vehicle: carboxymethylcellulose (CMC) 95 % of control

CCCCCCCCCCCCCCCCNS(=O)(=O)c1ccc2sc(SC)nc2c1
inactive: dose: 200.0 mg/kg/injection, schedule: Q04DX003 (ip), vehicle: saline with Tween-80 90 % of control | dose: 400.0 mg/kg/injection, schedule: Q04DX003 (ip), vehicle: saline with Tween-80 90 % of control

Nc1ccc2c3c(cccc13)C(=O)OC2=O
inactive: [16] 91 % of control | [1] 92 % of control | [17] 94 % of control | [3] 95 % of control | [18] 94 % of control | [5] 90 % of control

COc1cc2ccc(CC(=O)NCc3ccccc3)cc2cc1OC
inactive: [1] 94 % of control | [2] 91 % of control | [3] 89 % of control | [4] 86 % of control | [5] 101 % of control | [6] 101 % of control

COc1ncnc2c1nnn2C1OC(CO)C(O)C1O (stereo not given)
inactive: dose: 25.0 mg/kg/injection, schedule: Q01DX001 (ip), vehicle: saline with Tween-80 102 % of control | dose: 100.0 mg/kg/injection, schedule: Q01DX001 (ip), vehicle: saline with Tween-80 104 % of control

Cc1cc(C)c(C)[nH]1
inactive: dose: 6.25 mg/kg/injection, schedule: Q01DX009 (ip), vehicle: water 104 % of control | dose: 12.5 mg/kg/injection, schedule: Q01DX009 (ip), vehicle: water 101 % of control | dose: 25.0 mg/kg/injection, schedule: Q01DX009 (ip), vehicle: water 114 % of control | dose: 50.0 mg/kg/injection, schedule: Q01DX009 (ip), vehicle: water 105 % of control and 121 % of control

CC(=O)NC1CCC(O)CC1 (stereo not given)
inactive: [7] 104 % of control | [8] 94 % of control | [9] 107 % of control

C[N+](C)(C)CSSC[N+](C)(C)C
inactive: dose: 12.5 mg/kg/injection, schedule: Q04DX003 (ip), vehicle: saline 92 % of control | dose: 25.0 mg/kg/injection, schedule: Q04DX003 (ip), vehicle: saline 87 % of control | [15] 93 % of control

C/C=C/C(=O)Nc1cccc(C)c1C
inactive: [10] 93 % of control and 95 % of control | [12] 100 % of control | [14] 92 % of control
